In PubChem BioAssay AID2060505 (Molecular Pharmacology Branch, DTP, NCI, 2025):

Test system: 633275-114-R-J1-PDC complex spheroids, viability
Experiment: Anticancer human tumor 633275-114-R-J1-PDC patient-derived endometrial adenocarcinoma cell line growth inhibition [GQUAD]
Conditions: for IC50: curve of first compound; for viability, T/C: stronger effect = lower value
Method in brief: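 Multi-cell-type spheroids of tumor cells with HUVEC and mesenchymal stem cells, treated with drug combinations. Concentrations descend in half-log steps from near clinical Cmax, or from 10 microM where Cmax is unknown; viability read-out.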

[1] = second compound 0.0316 µM, first compound 0.0316 µM
[2] = second compound 0.0316 µM, first compound 0.1 µM
[3] = second compound 0.0316 µM, first compound 0.316 µM
[4] = second compound 0.0316 µM, first compound 1 µM
[5] = second compound 0.0316 µM, first compound 3.16 µM
[6] = second compound 0.0316 µM, first compound 10 µM
[7] = second compound 0.1 µM, first compound 0.0316 µM
[8] = second compound 0.1 µM, first compound 0.1 µM
[9] = second compound 0.1 µM, first compound 0.316 µM
[10] = second compound 0.1 µM, first compound 1 µM
[11] = second compound 0.1 µM, first compound 3.16 µM
[12] = second compound 0.1 µM, first compound 10 µM
[13] = second compound 0.316 µM, first compound 0.0316 µM
[14] = second compound 0.316 µM, first compound 0.1 µM
[15] = second compound 0.316 µM, first compound 0.316 µM
[16] = second compound 0.316 µM, first compound 1 µM
[17] = second compound 0.316 µM, first compound 3.16 µM
[18] = second compound 0.316 µM, first compound 10 µM
[19] = second compound 1 µM, first compound 0.0316 µM
[20] = second compound 1 µM, first compound 0.1 µM
[21] = second compound 1 µM, first compound 0.316 µM
[22] = second compound 1 µM, first compound 1 µM
[23] = second compound 1 µM, first compound 3.16 µM
[24] = second compound 1 µM, first compound 10 µM
[25] = second compound 3.16 µM, first compound 0.0316 µM
[26] = second compound 3.16 µM, first compound 0.1 µM
[27] = second compound 3.16 µM, first compound 0.316 µM
[28] = second compound 3.16 µM, first compound 1 µM
[29] = second compound 3.16 µM, first compound 3.16 µM
[30] = second compound 3.16 µM, first compound 10 µM
[31] = second compound 10 µM, first compound 0.0316 µM
[32] = second compound 10 µM, first compound 0.1 µM
[33] = second compound 10 µM, first compound 0.316 µM
[34] = second compound 10 µM, first compound 1 µM
[35] = second compound 10 µM, first compound 3.16 µM
[36] = second compound 10 µM, first compound 10 µM
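Also: spheroids exposed to the agents for seven days.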
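For viability, T/C in this document: percent of DMSO vehicle control viability which is 100%.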

## CCCS(=O)(=O)Nc1ccc(F)c(C(=O)c2c[nH]c3ncc(-c4ccc(Cl)cc4)cc23)c1F + CN(C)c1ccc(Nc2c3ccc(NC(=O)CCN4CCCC4)cc3nc3cc(NC(=O)CCN4CCCC4)ccc23)cc1
Second compound 0.0316 µM
  IC50: 8890 nM
Second compound 0.1 µM
  IC50: 9280 nM
Second compound 0.316 µM
  IC50: 9530 nM
Second compound 1 µM
  IC50: 8320 nM
Second compound 3.16 µM
  IC50: 5040 nM
Second compound 10 µM
  IC50: < 31.6 nM
[1]
  viability, T/C: 93.3%
[2]
  viability, T/C: 97.6%
[3]
  viability, T/C: 98.5%
[4]
  viability, T/C: 100%
[5]
  viability, T/C: 91%
[6]
  viability, T/C: 45.2%
[7]
  viability, T/C: 90.6%
[8]
  viability, T/C: 109%
[9]
  viability, T/C: 103%
[10]
  viability, T/C: 103%
[11]
  viability, T/C: 91.4%
[12]
  viability, T/C: 46.8%
[13]
  viability, T/C: 100%
[14]
  viability, T/C: 108%
[15]
  viability, T/C: 103%
[16]
  viability, T/C: 111%
[17]
  viability, T/C: 85.8%
[18]
  viability, T/C: 48.4%
[19]
  viability, T/C: 97.1%
[20]
  viability, T/C: 106%
[21]
  viability, T/C: 103%
[22]
  viability, T/C: 99.1%
[23]
  viability, T/C: 83.9%
[24]
  viability, T/C: 43.4%
[25]
  viability, T/C: 92.5%
[26]
  viability, T/C: 89%
[27]
  viability, T/C: 94.8%
[28]
  viability, T/C: 94.3%
[29]
  viability, T/C: 69%
[30]
  viability, T/C: 22.3%
[31]
  viability, T/C: 33.7%
[32]
  viability, T/C: 31.8%
[33]
  viability, T/C: 31.6%
[34]
  viability, T/C: 33.6%
[35]
  viability, T/C: 25.1%
[36]
  viability, T/C: 7.58%

## Cc1[nH]c2ccccc2c1CCNCc1ccc(/C=C/C(=O)NO)cc1 + CN(C)c1ccc(Nc2c3ccc(NC(=O)CCN4CCCC4)cc3nc3cc(NC(=O)CCN4CCCC4)ccc23)cc1
Second compound 0.0316 µM
  IC50: 82.6 nM
Second compound 0.1 µM
  IC50: 55.1 nM
Second compound 0.316 µM
  IC50: 55.2 nM
Second compound 1 µM
  IC50: 48 nM
Second compound 3.16 µM
  IC50: 24.8 nM
Second compound 10 µM
  IC50: < 0.999 nM
Second compound 0.0316 µM, first compound 0.000999 µM
  viability, T/C: 97.4%
Second compound 0.0316 µM, first compound 0.00316 µM
  viability, T/C: 94.7%
Second compound 0.0316 µM, first compound 0.00999 µM
  viability, T/C: 84.9%
[1]
  viability, T/C: 59.6%
Second compound 0.0316 µM, first compound 0.0999 µM
  viability, T/C: 51.3%
[3]
  viability, T/C: 21.6%
Second compound 0.1 µM, first compound 0.000999 µM
  viability, T/C: 94.2%
Second compound 0.1 µM, first compound 0.00316 µM
  viability, T/C: 102%
Second compound 0.1 µM, first compound 0.00999 µM
  viability, T/C: 80.5%
[7]
  viability, T/C: 57.1%
Second compound 0.1 µM, first compound 0.0999 µM
  viability, T/C: 43%
[9]
  viability, T/C: 22%
Second compound 0.316 µM, first compound 0.000999 µM
  viability, T/C: 96.8%
Second compound 0.316 µM, first compound 0.00316 µM
  viability, T/C: 97.4%
Second compound 0.316 µM, first compound 0.00999 µM
  viability, T/C: 70.5%
[13]
  viability, T/C: 60.5%
Second compound 0.316 µM, first compound 0.0999 µM
  viability, T/C: 41.2%
[15]
  viability, T/C: 19.4%
Second compound 1 µM, first compound 0.000999 µM
  viability, T/C: 88%
Second compound 1 µM, first compound 0.00316 µM
  viability, T/C: 83.4%
Second compound 1 µM, first compound 0.00999 µM
  viability, T/C: 67.3%
[19]
  viability, T/C: 58.1%
Second compound 1 µM, first compound 0.0999 µM
  viability, T/C: 38.4%
[21]
  viability, T/C: 18.3%
Second compound 3.16 µM, first compound 0.000999 µM
  viability, T/C: 82.4%
Second compound 3.16 µM, first compound 0.00316 µM
  viability, T/C: 80.2%
Second compound 3.16 µM, first compound 0.00999 µM
  viability, T/C: 61.2%
[25]
  viability, T/C: 48.6%
Second compound 3.16 µM, first compound 0.0999 µM
  viability, T/C: 26.3%
[27]
  viability, T/C: 15.4%
Second compound 10 µM, first compound 0.000999 µM
  viability, T/C: 34.1%
Second compound 10 µM, first compound 0.00316 µM
  viability, T/C: 29.8%
Second compound 10 µM, first compound 0.00999 µM
  viability, T/C: 21%
[31]
  viability, T/C: 23.4%
Second compound 10 µM, first compound 0.0999 µM
  viability, T/C: 13.6%
[33]
  viability, T/C: 4.56%

## O=C(NO)c1cnc(N2CCN(S(=O)(=O)c3ccc4ccccc4c3)CC2)nc1 + CN(C)c1ccc(Nc2c3ccc(NC(=O)CCN4CCCC4)cc3nc3cc(NC(=O)CCN4CCCC4)ccc23)cc1
Second compound 0.0316 µM
  IC50: 206 nM
Second compound 0.1 µM
  IC50: 150 nM
Second compound 0.316 µM
  IC50: 170 nM
Second compound 1 µM
  IC50: 158 nM
Second compound 3.16 µM
  IC50: 138 nM
Second compound 10 µM
  IC50: < 31.6 nM
[1]
  viability, T/C: 75.1%
[2]
  viability, T/C: 64.9%
[3]
  viability, T/C: 40.4%
[4]
  viability, T/C: 22.8%
[5]
  viability, T/C: 11.5%
[6]
  viability, T/C: 4.89%
[7]
  viability, T/C: 68.3%
[8]
  viability, T/C: 58.4%
[9]
  viability, T/C: 35.5%
[10]
  viability, T/C: 19.6%
[11]
  viability, T/C: 10.5%
[12]
  viability, T/C: 5.36%
[13]
  viability, T/C: 80.9%
[14]
  viability, T/C: 62%
[15]
  viability, T/C: 35.7%
[16]
  viability, T/C: 20.1%
[17]
  viability, T/C: 12.1%
[18]
  viability, T/C: 4.98%
[19]
  viability, T/C: 70.1%
[20]
  viability, T/C: 58.3%
[21]
  viability, T/C: 37.9%
[22]
  viability, T/C: 18.3%
[23]
  viability, T/C: 12.2%
[24]
  viability, T/C: 5.49%
[25]
  viability, T/C: 62.6%
[26]
  viability, T/C: 55%
[27]
  viability, T/C: 37.5%
[28]
  viability, T/C: 15.6%
[29]
  viability, T/C: 9.85%
[30]
  viability, T/C: 2.65%
[31]
  viability, T/C: 30.4%
[32]
  viability, T/C: 26.4%
[33]
  viability, T/C: 16.3%
[34]
  viability, T/C: 6.49%
[35]
  viability, T/C: 1.21%
[36]
  viability, T/C: 0.19%
